Results on four compounds are retold here after article PMC9923211, “Functional characterization and key residues engineering of a regiopromiscuity O-methyltransferase involved in benzylisoquinoline alkaloid biosynthesis in Nelumbo nucifera” (Horticulture Research, 2022).

What all share (assay): UPLC-MS methylation assay, Michaelis-Menten fit
For data set [1], the target named is T1, NnOMT6 (Nelumbo nucifera, UniProt A0A1U7Z1M5).
T1 construct: gene LOC104585771
It is filed as biochemical. The conditions noted are these: 50 mM potassium phosphate pH 8.0, 37°C, 30 min.

Data set [2] has as its system COc1c(O)cc2c3c1-c1ccccc1C[C@@H]3NCC2. It is filed as biochemical, Nelumbo nucifera. The conditions noted are these: SAM as methyl donor, 50 mM potassium phosphate pH 8.0, 37°C, 30 min.
Data set [3] deals with COc1cc2c(cc1O)[C@@H]1Cc3ccc(OC)c(O)c3CN1CC2. It is filed as biochemical, Nelumbo nucifera. The following applies: SAM as methyl donor, 50 mM potassium phosphate pH 8.0, 37°C, 30 min.

For `O=C(O)/C=C/c1ccc(O)c(O)c1` [compound 16, caffeic acid], the Km in data set [1] (200 μM SAM) was 216 µM.

`C[S+](CC[C@H](N)C(=O)O)C[C@H]1O[C@@H](n2cnc3c(N)ncnc32)[C@H](O)[C@@H]1O` (some centres unmarked) [SAM]: the Km in data set [1] (200 μM caffeic acid as acceptor) was determined as 163 µM.

As for NnOMT6 (Nelumbo nucifera; N323A), the Km in data set [2] turned out to be 132.77 µM; in data set [3] it was 86.35 µM.

With `Oc1ccc(C[C@@H]2NCCc3cc(O)c(O)cc32)cc1` [compound 1, (S)-norcoclaurine], the Km in data set [1] (200 μM SAM) was determined as 282 µM.
